Assay results from the NIST ThermoML archive (doi:10.1021/je400082c).

Conditions: Liquid

OCCO [1,2-ethanediol]
Conditions | vapor or sublimation pressure [kPa]
386.15 K | 3.92
389.12 K | 4.51
389.95 K | 4.78
390.75 K | 4.89
395.25 K | 6.08
400.78 K | 7.87
402.15 K | 8.37
405.85 K | 9.85
406.09 K | 10
406.25 K | 10.02
409.3 K | 11.42
411.15 K | 12.41
411.85 K | 12.85
413.85 K | 13.85
416.45 K | 15.37

CCC(O)CO (centres undefined) [1,2-butanediol]
Conditions | vapor or sublimation pressure [kPa]
372.06 K | 1.89
382.61 K | 3.33
390.52 K | 4.96
395.55 K | 6.36
399.56 K | 7.66
402.61 K | 8.81
405.13 K | 9.9
405.42 K | 10
408.5 K | 11.39
413.34 K | 14.09
418.29 K | 17.27
421.49 K | 19.63
424.91 K | 22.54
427.57 K | 25.06
429.92 K | 27.24
432.76 K | 30.39
435.37 K | 33.36
438.52 K | 37.3
439.97 K | 39.3
441.78 K | 41.9
443.55 K | 44.75

CC(O)CCO (centres undefined) [1,3-butanediol]
Conditions | vapor or sublimation pressure [kPa]
387.75 K | 2.43
395.13 K | 3.6
402.05 K | 5.03
406.61 K | 6.26
411.11 K | 7.72
413.41 K | 8.54
416.91 K | 10
418.03 K | 10.48
420.85 K | 11.87
422.04 K | 12.54
425.8 K | 14.63
427.74 K | 15.84
429.75 K | 17.09
433.71 K | 19.96
436.29 K | 22.24
439.65 K | 25.3
442.45 K | 28.15
444.75 K | 30.78
447.01 K | 33.36
449.8 K | 36.78
451.7 K | 39.45
453.1 K | 41.39

CC(O)CO (centres undefined) [1,2-propanediol]
Conditions | vapor or sublimation pressure [kPa]
398.23 K, Ebulliometric method (Recirculating still) | 10
